Measurements published in US20250213555A1, “SUBSTITUTED TETRAHYDROFURAN ANALOGS AS MODULATORS OF SODIUM CHANNELS” (VERTEX PHARMACEUTICALS INCORPORATED, priority 2021, published 2025).

target: human Nav 1.8 (Homo sapiens, UniProt Q9Y5Y9); test: E-VIPR assay detecting and measuring Nav inhibition properties; type: cell-based; details: HEK cells expressing a truncated form of human Nav 1.8; compound numbers without "*" (not marked as run in the presence of human serum); read-out: measured IC50 value in the E-VIPR Assay
Sequence (Q9Y5Y9 126-399 limits assumed): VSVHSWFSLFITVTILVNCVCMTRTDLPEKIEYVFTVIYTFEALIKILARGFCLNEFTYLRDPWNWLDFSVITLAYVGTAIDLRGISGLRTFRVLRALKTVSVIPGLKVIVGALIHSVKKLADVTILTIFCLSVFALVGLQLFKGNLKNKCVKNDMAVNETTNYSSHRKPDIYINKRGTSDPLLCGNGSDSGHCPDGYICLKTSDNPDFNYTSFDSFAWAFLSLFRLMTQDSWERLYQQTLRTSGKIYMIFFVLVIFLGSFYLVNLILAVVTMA
Sequence (Q9Y5Y9 660-890 limits assumed): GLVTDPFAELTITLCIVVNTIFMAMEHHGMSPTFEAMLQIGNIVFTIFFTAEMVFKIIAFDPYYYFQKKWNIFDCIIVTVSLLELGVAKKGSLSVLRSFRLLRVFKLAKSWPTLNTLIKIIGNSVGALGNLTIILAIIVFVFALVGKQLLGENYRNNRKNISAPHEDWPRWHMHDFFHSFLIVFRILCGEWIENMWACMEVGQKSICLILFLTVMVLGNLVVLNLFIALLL
Sequence (Q9Y5Y9 1148-1722 limits assumed): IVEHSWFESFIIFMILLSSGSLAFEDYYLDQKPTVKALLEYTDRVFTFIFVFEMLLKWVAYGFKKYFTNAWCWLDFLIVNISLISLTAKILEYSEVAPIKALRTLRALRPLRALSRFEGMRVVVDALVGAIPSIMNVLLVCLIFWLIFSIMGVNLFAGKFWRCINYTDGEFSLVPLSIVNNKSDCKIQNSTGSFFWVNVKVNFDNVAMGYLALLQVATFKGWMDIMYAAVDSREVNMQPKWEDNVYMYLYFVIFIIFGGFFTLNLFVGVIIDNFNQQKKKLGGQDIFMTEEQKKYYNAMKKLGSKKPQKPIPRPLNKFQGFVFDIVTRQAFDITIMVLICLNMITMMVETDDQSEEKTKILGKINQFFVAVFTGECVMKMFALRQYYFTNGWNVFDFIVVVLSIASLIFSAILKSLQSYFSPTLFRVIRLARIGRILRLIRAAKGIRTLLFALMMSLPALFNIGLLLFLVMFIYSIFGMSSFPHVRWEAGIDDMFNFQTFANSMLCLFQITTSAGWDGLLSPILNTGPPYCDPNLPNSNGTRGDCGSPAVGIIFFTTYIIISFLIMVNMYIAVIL
Text: E-VIPR Assay Detecting and Measuring Nav Inhibition Properties
Sodium ion channels are voltage-dependent proteins that can be activated by inducing membrane voltage changes by applying electric fields. The electrical stimulation instrument and methods of use, referred to as E-VIPR, are described in International Publication No. WO 2002/008748 A3 and C.-J. Huang et al. Characterization of voltage-gated sodium channel blockers by electrical stimulation and fluorescence detection of membrane potential, 24 Nature Biotech. 439-46 (2006), both of which are incorporated by reference in their entirety. The instrument comprises a microtiter plate handler, an optical system for exciting the coumarin dye while simultaneously recording the coumarin and oxonol emissions, a waveform generator, a current- or voltage-controlled amplifier, and parallel electrode pairs that are inserted into assay plate wells. Under integrated computer control, this instrument passes user-programmed electrical stimulus protocols to cells within the wells of the microtiter plate.
16-20 hours prior to running the assay on E-VIPR, HEK cells expressing a truncated form of human Nav 1.8 with full channel activity were seeded into microtiter 384-well plates, pre-coated with matrigel, at a density of 25,000 cells per well. 2.5-5% KIR2.1 Bacmam virus was added to the final cell suspension before seeding into cell plates. HEK cells were grown in Dulbecco's Modified Eagle's Medium (DMEM) supplemented with 10% FBS (Fetal Bovine Serum, qualified; Sigma #F4135), 1% NEAA (Non-Essential Amino Acids, Gibco #11140), 1% HEPES (Gibco #15630), 1% Pen-Strep (Penicillin-Streptomycin; Gibco #15140) and 5 μg/ml Blasticidin (Gibco #R^210-01). Cells were expanded in vented cap cell culture flasks, with 90-95% humidity and 5% CO2.
100 mg/mL Pluronic F-127 (Sigma #P2443), in dry DMSO
Compound Plates: Corning 384-well Polypropylene Round Bottom #3656
Cell Plates: 384-well tissue culture treated plates (Greiner #781091-2B)
2.5-5% KIR 2.1 Bacmam virus (produced in-house), prepared as described in Section 3.3 of J. A. Fornwald et al., Gene Expression in Mammalian Cells Using BacMam, a Modified Baculovirus System, 1350 Methods in Molecular Biology 95-116 (2016), the entire contents of which are incorporated by reference. The concentration used can be dependent on viral titer of each batch.
5 mM DiSBAC6(3), a voltage sensitive oxonol acceptor (CAS number 169211-44-3; 5-[3-(1,3-dihexylhexahydro-4,6-dioxo-2-thioxo-5-pyrimidinyl)-2-propen-1-ylidene]-1,3-dihexyldihydro-2-thioxo-4,6 (1H,5H)-pyrimidinedione), in dry DMSO. The preparation of DiSBAC6(3) is analogous to that of DiSBAC4(3) as described in Voltage Sensing by Fluorescence Resonance Energy Transfer in Single Cells, Gonzalez, J. E. and Tsien, R. Y. (1995) Biophys. J. 69, 1272-1280.
5 mM CC2-DMPE, a commercially available membrane-bound coumarin phospholipid FRET donor (ThermoFisher Scientific catalog number K1017, CAS number 393782-57-5; tetradecanoic acid, 1,1′-[(1R)-1-[8-(6-chloro-7-hydroxy-2-oxo-2H-1-benzopyran-3-yl)-3-hydroxy-3-oxido-8-oxo-2,4-dioxa-7-aza-3-phosphaoct-1-yl]-1,2-ethanediyl] ester) was prepared in dry DMSO. See also, Improved indicators of cell membrane potential that use fluorescence resonance energy transfer, Gonzalez, J. E. and Tsien, R. Y. (1997) Chem. Biol. 4, 269-277.
Voltage Assay Background Suppression Compound (VABSC-1) is prepared in H2O (89-363 mM, range used to maintain solubility)
Human Serum (HS, Millipore #S1P1-01KL, or Sigma SLBR5469V and SLBR5470V as a 50%/50% mixture, for 25% assay final concentration)
• Sodium Chloride 160 mM (9.35 g/L), Potassium Chloride, 4.5 mM (0.335 g/L), Glucose 10 mM (1.8 g/L), Magnesium Chloride (Anhydrous) 1 mM (0.095 g/L), Calcium Chloride 2 mM (0.222 g/L), HEPES 10 mM (2.38 g/L) in water. […]

SMILES	IC50
C[C@H]1[C@@H](c2ccc(F)c(F)c2OC2COC2)[C@H](C(=O)Nc2ccnc(C(N)=O)c2)O[C@@]1(C)C(F)(F)F [Compound 58, 4-((2R,3S,4S,5R)-3-(3,4-difluoro-2-(oxetan-3-yloxy)phenyl)-4,5-dimethyl-5-(trifluoromethyl)tetrahydrofuran-2-carboxamido) picolinamide]	< 0.01 µM
COc1c([C@H]2[C@H](C(=O)Nc3ccnc(C(=O)N4C[C@@H](C)NC[C@H]4C)c3)O[C@@](C)(C(F)(F)F)[C@H]2C)ccc(F)c1F [Compound 250, (2R,3S,4S,5R)-3-(3,4-difluoro-2-methoxyphenyl)-N-(2-((2R,5R)-2,5-dimethylpiperazine-1-carbonyl)pyridin-4-yl)-4,5-dimethyl-5-(trifluoromethyl)tetrahydrofuran-2-carboxamide]	< 0.01 µM
COCC1(C)CC(c2ccc(F)c(F)c2OC)C(C(=O)Nc2ccnc(C(N)=O)c2)O1 (single isomer, unassigned) [Compound 29]	≥ 1 µM
C[C@H]1[C@@H](c2ccc(F)c(F)c2OC2CC(C#N)C2)[C@H](C(=O)Nc2ccnc(C(N)=O)c2)O[C@@]1(C)C(F)(F)F (stereo partly drawn) [Compound 80, 4-((2R,3S,4S,5R)-3-(2-(3-cyanocyclobutoxy)-3,4-difluorophenyl)-4,5-dimethyl-5-(trifluoromethyl)tetrahydrofuran-2-carboxamido)picolinamide]	< 0.01 µM
COc1c([C@H]2[C@H](C(=O)Nc3ccnc(C(=O)N4C[C@H](OC)[C@H](N(C)C)C4)c3)O[C@@](C)(C(F)(F)F)[C@H]2C)ccc(F)c1F [Compound 302, (2R,3S,4S,5R)-3-(3,4-difluoro-2-methoxyphenyl)-N-(2-((3R,4S)-3-(dimethylamino)-4-methoxypyrrolidine-1-carbonyl)pyridin-4-yl)-4,5-dimethyl-5-(trifluoromethyl)tetrahydrofuran-2-carboxamide]	< 0.01 µM
CC1C(c2ccc(F)c(F)c2OC2CC(O)C2)C(C(=O)Nc2ccnc(C(N)=O)c2)OC1(C)C(F)(F)F [Compound 166, 4-((2R,3S,4S,5R)-3-(3,4-difluoro-2-((1s,3R)-3-hydroxycyclobutoxy)phenyl)-4,5-dimethyl-5-(trifluoromethyl)tetrahydrofuran-2-carboxamido)picolinamide]	< 0.01 µM
COc1c([C@H]2[C@H](C(=O)Nc3ccnc(C(=O)N4C[C@@H](N)[C@@H](F)C4)c3)O[C@@](C)(C(F)(F)F)[C@H]2C)ccc(F)c1F [Compound 259, (2R,3S,4S,5R)-N-(2-((3R,4S)-3-amino-4-fluoropyrrolidine-1-carbonyl)pyridin-4-yl)-3-(3,4-difluoro-2-methoxyphenyl)-4,5-dimethyl-5-(trifluoromethyl)tetrahydrofuran-2-carboxamide]	< 0.01 µM
COc1c([C@H]2[C@H](C(=O)Nc3ccnc(C(=O)N4C[C@H](N)[C@@H](F)C4)c3)O[C@@](C)(C(F)(F)F)[C@H]2C)ccc(F)c1F [Compound 260, (2R,3S,4S,5R)-N-(2-((3S,4S)-3-amino-4-fluoropyrrolidine-1-carbonyl)pyridin-4-yl)-3-(3,4-difluoro-2-methoxyphenyl)-4,5-dimethyl-5-(trifluoromethyl)tetrahydrofuran-2-carboxamide]	< 0.01 µM
COc1c([C@H]2[C@H](C(=O)Nc3ccnc(C(=O)N[C@H]4CCNC4)c3)O[C@@](C)(C(F)(F)F)[C@H]2C)ccc(F)c1F [Compound 238, 4-((2R,3S,4S,5R)-3-(3,4-difluoro-2-methoxyphenyl)-4,5-dimethyl-5-(trifluoromethyl)tetrahydrofuran-2-carboxamido)-N-((S)-pyrrolidin-3-yl)picolinamide]	< 0.01 µM
COc1c([C@H]2[C@H](C(=O)Nc3ccnc(C(=O)N4C5CNCC4C5)c3)O[C@@](C)(C(F)(F)F)[C@H]2C)ccc(F)c1F [Compound 237, (2R,3S,4S,5R)-N-(2-(3,6-diazabicyclo[3.1.1]heptane-6-carbonyl)pyridin-4-yl)-3-(3,4-difluoro-2-methoxyphenyl)-4,5-dimethyl-5-(trifluoromethyl)tetrahydrofuran-2-carboxamide]	0.01 to 0.1 µM
COc1c([C@H]2[C@H](C(=O)Nc3cc(C(=O)N4CCNCC4)ccn3)O[C@@](C)(C(F)(F)F)[C@H]2C)ccc(F)c1F [Compound 18, (2R,3S,4S,5R)-3-(3,4-difluoro-2-methoxyphenyl)-4,5-dimethyl-N-(4-(piperazine-1-carbonyl)pyridin-2-yl)-5-(trifluoromethyl)tetrahydrofuran-2-carboxamide]	0.01 to 0.1 µM
C[C@H]1[C@@H](c2ccc(F)c(F)c2OCCCN2CCOCC2)[C@H](C(=O)Nc2ccnc(C(N)=O)c2)O[C@@]1(C)C(F)(F)F [Compound 62, 4-((2R,3S,4S,5R)-3-(3,4-difluoro-2-(3-morpholinopropoxy)phenyl)-4,5-dimethyl-5-(trifluoromethyl)tetrahydrofuran-2-carboxamido)picolinamide]	< 0.01 µM
COc1c([C@H]2[C@H](C(=O)Nc3ccnc(C(=O)N4C[C@@H](C)N(C)C[C@H]4C)c3)O[C@@](C)(C(F)(F)F)[C@H]2C)ccc(F)c1F [Compound 289, (2R,3S,4S,5R)-3-(3,4-difluoro-2-methoxyphenyl)-4,5-dimethyl-5-(trifluoromethyl)-N-(2-((2R,5R)-2,4,5-trimethylpiperazine-1-carbonyl)pyridin-4-yl)tetrahydrofuran-2-carboxamide]	0.01 to 0.1 µM
COc1c([C@H]2[C@H](C(=O)Nc3ccnc(C(=O)N4CCC45CNC5)c3)O[C@@](C)(C(F)(F)F)[C@H]2C)ccc(F)c1F [Compound 225, (2R,3S,4S,5R)-N-(2-(1,6-diazaspiro[3.3]heptane-1-carbonyl)pyridin-4-yl)-3-(3,4-difluoro-2-methoxyphenyl)-4,5-dimethyl-5-(trifluoromethyl)tetrahydrofuran-2-carboxamide]	0.01 to 0.1 µM
C[C@H]1[C@@H](c2ccc(F)c(F)c2OCCN2CCC3(COC3)C2)[C@H](C(=O)Nc2ccnc(C(N)=O)c2)O[C@@]1(C)C(F)(F)F [Compound 127, 4-((2R,3S,4S,5R)-3-(2-(2-(2-oxa-6-azaspiro[3.4]octan-6-yl)ethoxy)-3,4-difluorophenyl)-4,5-dimethyl-5-(trifluoromethyl)tetrahydrofuran-2-carboxamido)picolinamide]	< 0.01 µM
C[C@H]1[C@@H](c2ccc(F)c(F)c2OCCN2CC(OC(F)F)C2)[C@H](C(=O)Nc2ccnc(C(N)=O)c2)O[C@@]1(C)C(F)(F)F [Compound 119, 4-((2R,3S,4S,5R)-3-(2-(2-(3-(difluoromethoxy)azetidin-1-yl)ethoxy)-3,4-difluorophenyl)-4,5-dimethyl-5-(trifluoromethyl)tetrahydrofuran-2-carboxamido)picolinamide]	< 0.01 µM
CC1C(c2ccc(F)c(F)c2OCC2CCC2O)C(C(=O)Nc2ccnc(C(N)=O)c2)OC1(C)C(F)(F)F [Compound 98, rel-4-((2R*,3S*,4S*,5R*)-3-(3,4-difluoro-2-(((15,2S)-2-hydroxycyclobutyl)methoxy)phenyl)-4,5-dimethyl-5-(trifluoromethyl)tetrahydrofuran-2-carboxamido)picolinamide]	0.01 to 0.1 µM
C[C@H]1[C@@H](c2ccc(F)c(F)c2OCCN2CCCOCC2)[C@H](C(=O)Nc2ccnc(C(N)=O)c2)O[C@@]1(C)C(F)(F)F [Compound 108, 4-((2R,3S,4S,5R)-3-(2-(2-(1,4-oxazepan-4-yl)ethoxy)-3,4-difluorophenyl)-4,5-dimethyl-5-(trifluoromethyl)tetrahydrofuran-2-carboxamido)picolinamide]	0.01 to 0.1 µM
